Experimental findings from patent US7560462B2, “Compounds useful for inhibiting CHK1” (ICOS Corporation, priority 2004, dated 2009) are described below.

Experiment [1] deals with Chk1 serine 296 phosphorylation in HT29 cells. Put plainly: Western blot of Chk1 phosphorylation at serine 296. It counts as cell-based, human. The procedure:
Phosphorylation at this site is not inhibited by wortmannin, which inhibits Atm and Atr. Therefore, the phosphorylation of serine 296 is distinct from phosphorylation at serines 317 and 345. […] Therefore, this approach can be used to monitor Chk1 activity in tumors in response to Chk1 activators. Further, this approach can be used to measure inhibition of Chk1 activation by Chk1 inhibitors.
Thus, HT 29 cells are treated with 20 μM gemcitabine for two h. The gemcitabine is washed out of the cell growth media and cells are incubated for 22 additional h. Protein lysates are prepared and separated by an SDS-polyacrylamide gel electrophoresis. Proteins are transferred to polyvinylidene fluoride (PVDF) membranes and probed with antisera (Cell Signalling) specific for phosphorylated serine 296 (Cell Signalling). […] Further, HT29 cells treated with selective Chk1 inhibitors for 15 min show no serine 296 phosphorylation.
Background: In western blotting, separated proteins are transferred to a membrane and probed.

The subject of experiment [2] is Chk1 phosphorylation in HT29 cells. Put plainly: Western blot of Chk1 phosphorylation at serines 317 and 345. It counts as cell-based, human. As to conditions: 20 μM for two h, then 22 h washout. The text has this: To determine whether an agent is a Chk1 activator, the phosphorylation state of Chk1 can be measured using phospho-specific antibodies to specific phosphorylation sites on Chk1. […] Liu et al., Genes Dev. 14:1448-59, 2000; Zhao et al., Mol. Cell. Biol. 21:4129-39, 2001; Lopez-Girona et al., Proc. Natl. Acad. Sci. U.S.A. 98:11289-94, 2001; Guo et al., Genes Dev. 14:2745-56, 2000; Gatei et al., J. Biol. Chem. 278:14806-11, 2003; Ng et al., J Biol. Chem. 279(10):8808-19, 2004; Wang et al., Natl Acad Sci USA. 100(26):15387-92, 2003; Stojic et al., Genes Dev. 18(11):1331-44, 2004. These serine sites are phosphorylated by upstream checkpoint kinases, Atm and Atr. Liu et al., Genes Dev. 14:1448-59, 2000; Zhao et al. Mol. Cell. Biol., 21:4129-39, 2001).
The phosphorylation of these sites in response to a candidate Chk1 activator can be monitored by Western blot or immunohistochemistry of tumor cells. […] HT29 cells are treated with 20 μM gemcitabine for two h. The gemcitabine is washed out of the cell growth media and cells are incubated for 22 additional h. Protein lysates are prepared and separated by an SDS-polyacrylamide gel electrophoresis. Proteins are transferred to PVDF membranes and probed with antisera (Cell Signalling) specific for either phosphorylated serine 317 or 345 (Cell Signalling).

For experiment [3], the system named is colon tumor cell line xenograft tumors. The experiment can be described thus: Animal tumor models (xenograft). As to conditions: 160 mg/kg i.p., xenograft mice. It counts as in vivo, Balb/c (nu/nu) mice. The text has this:
To test the ability of the Chk1 inhibitors of the invention to enhance the killing of tumors by DNA damaging agents in mice, xenograft tumor models using colon tumor cell lines are established. 5-fluorouracil (5-FU) or gemcitabine can be used as DNA damaging agents; HT29 and Colo205 (human colon carcinoma) and H460 and Calu-6 (nonsmall cell carcinoma) cells can be used to propagate xenograft tumors in 6-8 week old female […] Balb/c (nu/nu) mice. Mice are maintained in a laminar airflow cabinet under pathogen-free conditions and fed sterile food and water ad libitum. Cell lines are grown to subconfluence in RPMI 1640 media supplemented with 10% FBS, 100 U/mL penicillin, 100 μg/mL streptomycin, and 1.5 mM L-glutamine in a 5% CO2 humidified environment. Single cell suspensions are prepared in CMF-PBS, and cell concentration adjusted to 1×10^8 cells/mL. Mice are inoculated subcutaneously (s.c.) on the right flank or right leg with a total of 1×10^7 cells (100 μL). Mice are randomized (5-15 mice/group) into four treatment groups and used when tumors reach a volume of […] (usually 7-11 days post-inoculation). Tumors are measured with vernier calipers and tumor volumes are estimated using the empirically derived formula: tumor volume (cm^3)=tumor length (cm)×tumor width (cm)×tumor depth (cm)/3.3. […] Tumor size is monitored every other day for the duration of the experiment.

As to `COC[C@H]1OC(=O)c2coc3c2[C@@]1(C)C1=C(C3=O)[C@@H]2CCC(=O)[C@@]2(C)C[C@H]1OC(C)=O` [wortmannin], the “inhibition of Chk1 serine 296 phosphorylation” value in experiment [1] (gemcitabine-stimulated tumor cells) is listed as “not inhibited”.
With `Nc1ccn([C@@H]2O[C@H](CO)[C@@H](O)C2(F)F)c(=O)n1` [gemcitabine, 2′,2′ difluoro-2′-deoxycytidine], in experiment [2], the “phosphorylation of Chk1 serines 317 and 345” value is “results in the phosphorylation of both serines 317 and 345”. In addition, the tumor growth result in experiment [3] is on record as “delay in tumor growth is observed”. In addition, in experiment [1] (HT29 cells, 20 μM for two h, then 22 h washout), the “phosphorylation of Chk1 serine 296” value is given as “results in the phosphorylation of serine 296”.
